In the supplement of paper PMC10307832 one finds relative viability data, which are given here for eight cell lines.

Common to all, as to experiment: relative viability (nuclei count vs DMSO), 5 days (fraction); higher = more cells survive
Compound in assay [1]: NCC(=O)Nc1ccc(-n2nc(C(F)(F)F)cc2-c2ccc3c(ccc4ccccc43)c2)cc1 + COc1cc2c(Oc3ccc(NC(=O)C4(C(=O)Nc5ccc(F)cc5)CC4)cc3F)ccnc2cc1OCCCN1CCOCC1 [Foretinib] (partner 0.25 µM)
The method, boiled down: (§1)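 Relative viability was taken as the ratio of nuclei in treated wells to nuclei in vehicle wells. Lung cancer cell lines in 1536-well plates received compounds by pin tool one day after seeding, either one drug alone or a fixed anchor-drug dose plus five library-drug doses (not always all listed) in √10 steps. Nuclei were counted on 4× images after 5 days of treatment, and values are medians of duplicate plates.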

Compound in assay [2]: NCC(=O)Nc1ccc(-n2nc(C(F)(F)F)cc2-c2ccc3c(ccc4ccccc43)c2)cc1 + CC(=O)Nc1cccc(-n2c(=O)n(C3CC3)c(=O)c3c(Nc4ccc(I)cc4F)n(C)c(=O)c(C)c32)c1 [Trametinib] (partner 0.02 µM)
In short, it runs like this:
as §1

Compound in assay [3]: C1CSC2=C(C(=O)N1)SC3=C2C=C(C=C3)O [kb NB 142-70] + N=C(N)NC(=N)NCCc1ccccc1 [Phenformin] (partner 250 µM)
The method, boiled down:
as §1

Compound in assay [4]: C1CSC2=C(C(=O)N1)SC3=C2C=C(C=C3)O [kb NB 142-70] + Cc1cc(Nc2cc(N3CCN(C)CC3)nc(Sc3ccc(NC(=O)C4CC4)cc3)n2)n[nH]1 [Tozasertib] (partner 0.1 µM)
The method, boiled down:
as §1

For the cell line NCI-H2085, the relative viability is 1.02 in assay [1] (first compound 0.02 µM); 1.05 in assay [1] (first compound 0.06325 µM); 1.07 in assay [1] (first compound 0.2 µM); 0.812 in assay [1] (first compound 0.6325 µM); 1.1 in assay [1] (first compound 2 µM); 0.402 in assay [2] (first compound 0.02 µM). Further, the relative viability turned out to be 0.623 in assay [2] (first compound 0.06325 µM); 0.507 in assay [2] (first compound 0.2 µM); 0.547 in assay [2] (first compound 0.6325 µM); 0.626 in assay [2] (first compound 2 µM); 0.706 in assay [3] (first compound 0.1 µM); 0.756 in assay [3] (first compound 1 µM). The relative viability in assay [3] (first compound 3.162 µM) amounted to 0.371; in assay [4] (first compound 0.1 µM), 0.796; in assay [4] (first compound 1 µM), 0.825; in assay [4] (first compound 3.162 µM), 0.661.

NCI-H2087: the relative viability in assay [1] (first compound 0.02 µM) is 0.981; in assay [1] (first compound 0.06325 µM), 0.992; in assay [1] (first compound 0.2 µM), 1.23; in assay [1] (first compound 0.6325 µM), 1.11; in assay [1] (first compound 2 µM), 1.15; in assay [2] (first compound 0.02 µM), 0.155. The relative viability turned out to be 0.209 in assay [2] (first compound 0.06325 µM); 0.214 in assay [2] (first compound 0.2 µM); 0.181 in assay [2] (first compound 0.6325 µM); 0.185 in assay [2] (first compound 2 µM); 0.432 in assay [3] (first compound 0.1 µM); 0.555 in assay [3] (first compound 1 µM). Further, the relative viability was 0.411 in assay [3] (first compound 3.162 µM), 0.267 in assay [4] (first compound 0.1 µM), 0.201 in assay [4] (first compound 1 µM) and 0.141 in assay [4] (first compound 3.162 µM).

On to NCI-H2126, for which the relative viability in assay [1] (first compound 0.02 µM) worked out at 1.23; in assay [1] (first compound 0.06325 µM), 1.1; in assay [1] (first compound 0.2 µM), 1.3; in assay [1] (first compound 0.6325 µM), 1.08; in assay [1] (first compound 2 µM), 1.11; in assay [2] (first compound 0.02 µM), 0.586. Also, the relative viability was determined as 0.599 in assay [2] (first compound 0.06325 µM); 0.626 in assay [2] (first compound 0.2 µM); 0.553 in assay [2] (first compound 0.6325 µM); 0.54 in assay [2] (first compound 2 µM); 0.525 in assay [3] (first compound 0.1 µM); 0.507 in assay [3] (first compound 1 µM). In addition, the relative viability in assay [3] (first compound 3.162 µM) amounted to 0.551; in assay [4] (first compound 0.1 µM), 0.805; in assay [4] (first compound 1 µM), 0.858; in assay [4] (first compound 3.162 µM), 0.823.

In the case of NCI-H2170, the relative viability in assay [1] (first compound 0.02 µM) turned out to be 0.995; in assay [1] (first compound 0.06325 µM), 0.975; in assay [1] (first compound 0.2 µM) it was 1.04; in assay [1] (first compound 0.6325 µM) it was 0.985; in assay [1] (first compound 2 µM), 1.02; in assay [2] (first compound 0.02 µM), 0.89. In addition, the relative viability came to 0.91 in assay [2] (first compound 0.06325 µM); 0.989 in assay [2] (first compound 0.2 µM); 0.884 in assay [2] (first compound 0.6325 µM); 0.912 in assay [2] (first compound 2 µM); 0.429 in assay [3] (first compound 0.1 µM); 0.405 in assay [3] (first compound 1 µM). Moreover, the relative viability in assay [3] (first compound 3.162 µM) amounted to 0.395; in assay [4] (first compound 0.1 µM) it was 0.688; in assay [4] (first compound 1 µM), 0.735; in assay [4] (first compound 3.162 µM), 0.481.

For NCI-H2228, the relative viability in assay [1] (first compound 0.02 µM) turned out to be 1.05; in assay [1] (first compound 0.06325 µM) it was 0.974; in assay [1] (first compound 0.2 µM), 0.889; in assay [1] (first compound 0.6325 µM), 0.97; in assay [1] (first compound 2 µM), 0.972; in assay [2] (first compound 0.02 µM) it was 0.559. Also, the relative viability is 0.593 in assay [2] (first compound 0.06325 µM); 0.548 in assay [2] (first compound 0.2 µM); 0.572 in assay [2] (first compound 0.6325 µM); 0.553 in assay [2] (first compound 2 µM); 0.263 in assay [3] (first compound 0.1 µM); 0.317 in assay [3] (first compound 1 µM). The relative viability was 0.178 in assay [3] (first compound 3.162 µM), 0.254 in assay [4] (first compound 0.1 µM), 0.217 in assay [4] (first compound 1 µM) and 0.146 in assay [4] (first compound 3.162 µM).

For NCI-H2342, the relative viability came to 1.05 in assay [1] (first compound 0.02 µM); 1.16 in assay [1] (first compound 0.06325 µM); 1.18 in assay [1] (first compound 0.2 µM); 0.97 in assay [1] (first compound 0.6325 µM); 1.24 in assay [1] (first compound 2 µM); 0.887 in assay [2] (first compound 0.02 µM). The relative viability was determined as 0.877 in assay [2] (first compound 0.06325 µM); 0.965 in assay [2] (first compound 0.2 µM); 0.833 in assay [2] (first compound 0.6325 µM); 0.776 in assay [2] (first compound 2 µM); 0.615 in assay [3] (first compound 0.1 µM); 0.619 in assay [3] (first compound 1 µM). Moreover, the relative viability amounted to 0.502 in assay [3] (first compound 3.162 µM), 0.447 in assay [4] (first compound 0.1 µM), 0.614 in assay [4] (first compound 1 µM) and 0.544 in assay [4] (first compound 3.162 µM).

Regarding NCI-H2347, the relative viability amounted to 1.36 in assay [1] (first compound 0.02 µM); 0.838 in assay [1] (first compound 0.06325 µM); 1.02 in assay [1] (first compound 0.2 µM); 1.03 in assay [1] (first compound 0.6325 µM); 0.833 in assay [1] (first compound 2 µM); 0.311 in assay [2] (first compound 0.02 µM). Further, the relative viability is 0.285 in assay [2] (first compound 0.06325 µM); 0.297 in assay [2] (first compound 0.2 µM); 0.268 in assay [2] (first compound 0.6325 µM); 0.357 in assay [2] (first compound 2 µM); 0.412 in assay [3] (first compound 0.1 µM); 0.349 in assay [3] (first compound 1 µM). The relative viability in assay [3] (first compound 3.162 µM) was determined as 0.381; in assay [4] (first compound 0.1 µM) it was 0.69; in assay [4] (first compound 1 µM), 0.589; in assay [4] (first compound 3.162 µM) it was 0.506.

With NCI-H2405, the relative viability worked out at 1.12 in assay [1] (first compound 0.02 µM); 1.07 in assay [1] (first compound 0.06325 µM); 1.13 in assay [1] (first compound 0.2 µM); 1.03 in assay [1] (first compound 0.6325 µM); 1.11 in assay [1] (first compound 2 µM); 0.5 in assay [2] (first compound 0.02 µM). Moreover, the relative viability in assay [2] (first compound 0.06325 µM) amounted to 0.721; in assay [2] (first compound 0.2 µM), 0.67; in assay [2] (first compound 0.6325 µM) it was 0.635; in assay [2] (first compound 2 µM), 0.734; in assay [3] (first compound 0.1 µM) it was 0.397; in assay [3] (first compound 1 µM) it was 0.375. Also, the relative viability was 0.356 in assay [3] (first compound 3.162 µM), 0.785 in assay [4] (first compound 0.1 µM), 0.695 in assay [4] (first compound 1 µM) and 0.652 in assay [4] (first compound 3.162 µM).
